The target in data set [1] is T1, Tubulin (Homo sapiens) (UniProt P68371+Q9H4B7+P0DPH7+P68366+Q13509+Q71U36+P04350+Q3ZCM7+P07437+P68363+Q9BQE3+Q6PEY2+Q13885+Q9BVA1+Q9BUF5). As to the kind of experiment: Induction of microtubule instability in human MCF7 cells assessed as mean shortening rate at IC25 for mitotic block measured after 20 hrs by immunofluorescence analysis. Type of data set: cell-based.

A further data set concerns HeLa. Put plainly: Effect on cell cycle progression in human HeLa cells assessed as reduction in 2N cells at 100 nM. Type of data set: functional, cell-based.
The subject of data set [2] is Trichophyton mentagrophytes. Put plainly: Fungicidal activity against Trichophyton mentagrophytes isolate 1 measured after 48 hrs by broth dilution method. Type of data set: functional. The following applies: isolate 1, 48 h. On the technique in general: Dilution methods test growth across graded concentrations, often in twofold steps.
The next data set deals with P22. Put plainly: Induction of necrosis in rat P22 cells implanted in rat compound administered intraperitoneally measured after 24 hrs post dose. Type of data set: functional, cell-based.
The next data set relates to Jurkat. Put plainly: Induction of apoptosis in human Jurkat cells assessed as DNA laddering at 1 nM by gel electrophoresis. Type of data set: functional, cell-based.
In another data set the test system is MCF7. As to the kind of experiment: Antimitotic activity in human MCF7 cells assessed as bipolar cells with uncompressed chromosomes at mitotic block IC50 measured after 20 hrs by immunofluorescence analysis relative to control. Type of data set: functional.
A short description of data set [3]: Antitumor activity against human A549 cells xenografted in nude mouse assessed as tumor growth inhibition at 7.5 mg/kg, ip qd administered every third day for 5 days in presence of CPT-11 relative to control. Type of data set: functional. The following applies: 120 h, read-out: TGI. Background: A xenograft is tissue or cells of one species grown in another, often human tumour cells in immunodeficient mice.

Another data set relates to Rattus norvegicus. As to the kind of experiment: Increase in blood flow in rat skeletal muscle at 15 mg/kg, ip measured after 24 hrs by [125I]iodoantipyrine based method relative to vehicle control. To be noted: in vivo. Type of data set: ADME, organism-based.
The next data set addresses Tubulin (Bos taurus) (UniProt Q6B856+Q862L2+Q862F3). The following applies: 10 uM.
The target in data set [4] is T1, Tubulin (Homo sapiens). As to the kind of experiment: Induction of microtubule dynamic instability in human MCF7 cells at IC25 for mitotic block measured after 20 hrs by immunofluorescence analysis. Type of data set: cell-based.
Data set [5] is described as follows: Cytotoxicity against human OVCAR3 cells assessed as reduction in cell viability measured after 48 hrs by resazurin dye-based fluorometric analysis. Type of data set: functional. The following applies: OVCAR-3, 48 h.
Data set [6] can be described thus: Cytotoxicity against mouse B16F10 cells assessed as reduction in cell viability measured after 48 hrs by resazurin dye-based fluorometric analysis. Type of data set: functional. To be noted: B16-F10, 48 h.
In data set [7] the target is T1, Tubulin (Homo sapiens). As to the kind of experiment: Induction of microtubule depolymerization in HUVEC at 2 uM measured after 30 mins. Type of data set: cell-based.
Data set [8] is described as follows: Toxicity in mouse allografted with mouse N202 tumor spheroids expressing H2B-GFP at 10 mg/kg, iv administered on day 12 as infusion for 5 mins. To be noted: in vivo. Type of data set: organism-based.

As a reminder, the MFC is the lowest tested concentration that kills the fungus rather than only halting it. A low value points to more potent killing. What is called EC50 is the concentration at which the effect is half-maximal.

Active and inactive are the calls of the source. No cut-off for these calls is given here.

Description for Tubulin (Bos taurus): Inhibition of [3H]CLC binding to bovine brain tubulin at 10 uM measured after 120 mins in presence of GTP by scintillation counting method

Consider `CC(C)(C)c1[nH]cnc1/C=c1\[nH]c(=O)/c(=C/c2ccccc2)[nH]c1=O` [PLINABULIN], for which the Activity is 31.9 um/min at Tubulin (Homo sapiens) [1]; “Dose-dependent effect” in the data set with P22; “Toxic” with Rattus norvegicus; 10.1 um/min on Tubulin (Homo sapiens) [4]; “Non-Toxic” in [8]. For the same compound, the result with HeLa, in the data set with Jurkat, in the data set on MCF7 and at Tubulin (Homo sapiens) [7] was Active. This compound yielded an MFC in data set [2] greater than 16 µg/mL. Also, the inhibition in vivo at 7.5 mg/kg in data set [3] was determined as 74%. Also, on Tubulin (Bos taurus), the inhibition entry is “Active”. Also, the results for the EC50 in data set [5] and in [6] were greater than 20000 nM and 37.1 nM, respectively.

Values taken from ChEMBL document CHEMBL3881525, “Analogs of dehydrophenylahistins and their therapeutic use” (2007).
